Data set [1] has as its system Staphylococcus aureus NRS-100. The data set can be described thus: MIC (50% NHS). The format is cell-based. Conditions: NRS100; Staphylococcus aureus NRS-100, 50% NHS.
Data set [2] has as its system Escherichia coli ATCC 25922. The data set can be described thus: Deep thigh infection model in neutropenic mice, CFU count. The format is in vivo. The settings on record: 24 h P.I.; for colony forming units (CFU) compared with ciprofloxacin: 12.5 mg/kg compound vs 2.5 mg/kg ciprofloxacin, four doses; for colony forming units (CFU) as compared to the control: neutropenic CD-1 mice, thigh, 12.5 mg/kg IV four doses (1, 3, 5, 7 h P.I.). As to the method:
The in vivo activity to determine the CFU following administration of the test compounds was determined on a deep thigh infection caused by Escherichia coli ATCC 25922 in mice. The in vivo efficacy of various compounds was measured using a modified version of the deep-thigh infection model disclosed in Selbie, F R, et al., Br. J. Exp. Pathol. 33 (1952), 315-26 and Zuluaga, A F, et al., BMC Infect. Dis. 6 (2005) 55, each of which is hereby incorporated by reference. The efficacy was determined measuring the number of bacterial colony forming units (“CFU”) of mice injected with Escherichia coli […] on Day 0 following administration of the compounds.
Female CD-1 mice, aged 6-8-weeks, were purchased from local licensed supplier. The mice were allowed to acclimate for 3 days in the animal facility before experimentation began. The mice were then rendered neutropenic by intraperitoneal (“I.P.”) injection of 150 mg/kg cyclophosphamide on Day-4 (4 days prior to the injection of bacteria), and a maintaining dose of 100 mg/kg cyclophosphamide on Day-1 (1 day prior to the injection of bacteria). This regimen conditioned mice to neutropenia during the study. On the day of bacterial challenge (Day 0), Escherichia coli ATCC 29522 was injected into each mouse. Prior to injection, the bacterium was streaked out from −80° C. glycerol stock onto a tryptone soya agar (“TSA”) plate on Day-1. On the day of bacterial challenging (Day 0), single colonies on the agar plate were suspended in sterile saline and the final bacterial concentration was adjusted to approximately 1×10^6 CFU/ml based on turbidity readout of the bacterial solution from a Siemens MicroScan turbidity meter. The bacterial suspension was kept on ice temporarily prior to injection once the desired concentration was achieved.
On Day 0, 100 μl of bacterial suspension as prepared above was injected into the posterior quadriceps muscles of the right thigh. Antibiotic compositions comprising a tested compound in a vehicle were given to mice through tail vein injection at one hours, three hours, five hours and 7 hours post of infection (“P.I.”). The vehicle for each antibiotic composition is 5% (w/v) solutol HS15 in water. At 24 h P.I., all mice were euthanized. Infected thigh muscles for each tested mouse were excised and stored in ice-cold sterile saline for transfer to a Biosafety Level 2 (“BSL-2”) laboratory for subsequent CFU counting. Within one hour following sample collection, the muscles from mice tested with the same antibiotic composition were homogenized by a homogenizer (IKA T10 basic S25), serially diluted in sterile saline, and plated on TSA plates. The plates were incubated at 30° C. for approximately 18 h. The CFU were counted and calculated as CFU/mouse. The animal facility was AAALAC accredited, and the animal welfare in this experiment was in compliance of IACUC.
The number of colony forming units was independently measured in five different mice per composition administered. Each mouse was administered a mass of active compound per kg weight of the mouse four times a day. Mice were administered a composition without a test compound, compositions comprising 2.5 mg(ciprofloxacin)/kg, 12.5 mg(Compound 17)/kg, 12.5 mg(Compound 23)/kg, and 12.5 mg(Compound 24)/kg).

Data set [3] has as its system Citrobacter werkmanii Brenner ATCC-51114. As to the kind of experiment: MIC (50% NHS). The settings on record: ATCC51114; Citrobacter werkmanii Brenner ATCC-51114, 50% NHS. The format is cell-based.
The nature of data set [4]: Microsomal stability assay, mouse CLint. The format is in vitro ADME. Set-up: unit not given here. Conditions: mouse liver microsomes, 1 μM, 0.5 mg/ml microsomal protein. Here is the method:
(§1) The activity profiles of compounds 17, 23, and 24 were assessed by various in vitro measurements. The minimum inhibitory concentration (MIC), MIC in the presence of normal human serum (NHS), microsome CLint, the % of free compounds following a plasma protein biding (PPB) assay, and the concentration of drug where the human-ether-à-go-go-related gene (hERG gene) channel block is halved (IC50(hERG)) were measured using standard in vitro protocols for compounds 17, 23, and 24. Unless otherwise indicated, measurements (e.g., microsomal clearance) were performed using a standard microsomal stability assay using LC/MS/MS techniques.
Test compounds were incubated at 37° C. with liver microsomes pooled from multiple donors at 1 μM in the presence of a NADPH regenerating system at 0.5 mg/ml microsomal protein. Positive of testosterone (a 3A4 substrate), propafenone (a 2D6 substrate), and diclofenac (a 2c9 substrate) were similarly incubated with microsomes in the presence of a NADPH regenerating system. Samples are removed at 0, 5, 10, 20, 30, and 60 minutes of incubation and immediately mixed with cold acetonitrile containing an internal standard (IS). Samples are then analyzed by LC/MS/MS to determine the disappearance of the test compound and are assessed based on the peak area ratios of analyte/IS (no standard curve).

Data set [5] has as its system Escherichia coli NCTC-13476. As to the kind of experiment: MIC (50% NHS). Type of data set: cell-based. Conditions: NCTC13476; Escherichia coli NCTC-13476, 50% NHS.
Data set [6] deals with Enterococcus faecalis ATCC-29212. As to the kind of experiment: MIC (50% NHS). Type of data set: cell-based. Conditions: ATCC29212; Enterococcus faecalis ATCC-29212, 50% NHS.
Data set [7] concerns Serratia marcescens Bizio ATCC-29021. As to the kind of experiment: MIC (50% NHS). The format is cell-based. The settings on record: ATCC29021; Serratia marcescens Bizio ATCC-29021, 50% NHS.
The nature of data set [8]: Plasma protein binding (PPB) assay. Type of data set: in vitro ADME. The settings on record: % of free compound. Here is the method:
as §1

Data set [9] has as its target T1, hERG Potassium Ion Channel (Homo sapiens, UniProt Q12809).
T1 construct: expressed in transfected cells
As to the kind of experiment: hERG channel block, automated planar clamp (QPatch), CHO cell line. The format is cell-based. Conditions: hERG channel in stable CHO cell line. Here is the method: as §1
Blockade of the cardiac ion channel coded by the hERG gene can lead to cardiac arrhythmia. […] To determine the viability of inventive compounds as pharmacological agents that would not affect the hERG channel blockade, a standard automated planar clamp method was employed to determine the IC50 for various test compounds on their inhibition of the channel. An electrophysiological assay was prepared to measure the electric current passing through the hERG channel expressed in a stable CHO cell line by applying the planar clamp method. This assay was performed using the automated QPatch platform (Sophion, Denmark) which allows fast and accurate electrophysiological characterization of the hERG ion channel and the determination of IC50 values for the test compounds.
(Block of hERG is tested as a sign of cardiac risk.)

For data set [10], the system named is Pseudomonas aeruginosa ATCC-BAA-47 (PAO1). As to the kind of experiment: MIC (50% NHS). The format is cell-based.
The test system of data set [11] is Enterobacter cloacae ATCC-BAA-1143. The data set can be described thus: MIC (50% NHS). The format is cell-based. Conditions: ATCCBAA1143; Enterobacter cloacae ATCC-BAA-1143, 50% NHS.

Values after ≈ are worked out from the molar mass of the structure shown.

Consider three compounds from patent US10654852B2, “Antibiotics and methods of using same” (THE BROAD INSTITUTE, INC., priority 2016, dated 2020).

As a reminder, the MIC is the smallest concentration in the dilution series that meets the test's criterion for growth inhibition. In general, fraction unbound refers to the share of the substance not bound to proteins or other matrix. Broadly, the IC50 is the concentration that gives 50% inhibition.

T1 sequence (Q12809 whole entry): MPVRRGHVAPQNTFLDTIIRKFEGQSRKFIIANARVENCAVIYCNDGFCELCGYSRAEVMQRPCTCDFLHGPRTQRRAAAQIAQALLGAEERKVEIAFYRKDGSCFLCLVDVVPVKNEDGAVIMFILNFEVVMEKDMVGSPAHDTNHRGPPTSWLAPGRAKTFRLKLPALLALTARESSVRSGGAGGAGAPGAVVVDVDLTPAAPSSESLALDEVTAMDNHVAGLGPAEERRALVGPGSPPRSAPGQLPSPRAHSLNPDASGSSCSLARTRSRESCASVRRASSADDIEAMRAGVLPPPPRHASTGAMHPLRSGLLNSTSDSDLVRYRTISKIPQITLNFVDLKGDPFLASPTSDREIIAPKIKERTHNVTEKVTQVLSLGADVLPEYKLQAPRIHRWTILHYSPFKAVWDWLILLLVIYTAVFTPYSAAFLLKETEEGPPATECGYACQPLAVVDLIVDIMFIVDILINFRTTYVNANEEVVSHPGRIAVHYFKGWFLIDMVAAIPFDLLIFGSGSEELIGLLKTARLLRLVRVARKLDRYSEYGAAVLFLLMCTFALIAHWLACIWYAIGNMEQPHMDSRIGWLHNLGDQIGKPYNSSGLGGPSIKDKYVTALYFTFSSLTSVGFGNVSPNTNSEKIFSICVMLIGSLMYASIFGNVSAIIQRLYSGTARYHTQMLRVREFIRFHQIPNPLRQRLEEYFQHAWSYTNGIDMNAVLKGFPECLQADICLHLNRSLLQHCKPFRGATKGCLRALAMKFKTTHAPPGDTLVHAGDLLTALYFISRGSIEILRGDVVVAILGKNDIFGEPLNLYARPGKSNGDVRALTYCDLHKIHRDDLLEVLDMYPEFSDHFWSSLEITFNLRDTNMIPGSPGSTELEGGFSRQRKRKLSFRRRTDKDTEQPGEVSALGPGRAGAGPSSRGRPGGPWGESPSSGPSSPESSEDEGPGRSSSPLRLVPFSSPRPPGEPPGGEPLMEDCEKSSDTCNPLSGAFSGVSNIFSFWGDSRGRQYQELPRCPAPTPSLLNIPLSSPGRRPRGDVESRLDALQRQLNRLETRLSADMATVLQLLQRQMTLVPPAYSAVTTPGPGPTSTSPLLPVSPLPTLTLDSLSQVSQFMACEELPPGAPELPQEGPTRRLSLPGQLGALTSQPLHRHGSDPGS

Take `CN1CC2CN(C(=O)Nc3cc(F)cc(F)c3)CC(C1)C2(O)c1ccc(-c2ccc(CN)cc2C#N)cc1` [Compound 23, (1R,5S,9r)-9-(4′-(aminomethyl)-2′-cyano-[1,1′-biphenyl]-4-yl)-N-(3,5-difluorophenyl)-9-hydroxy-7-methyl-3,7-diazabicyclo[3.3.1]nonane-3-carboxamide]: the minimum inhibitory concentration (MIC) in [1] is 0.13 µg/mL (≈ 0.251 µM); in data set [3] it was 4 µg/mL (≈ 7.73 µM); in data set [5], 2 µg/mL (≈ 3.86 µM); in data set [6], 0.5 µg/mL (≈ 0.966 µM); in data set [7] it was 4 µg/mL (≈ 7.73 µM); in data set [10] it was 2 µg/mL (≈ 3.86 µM). For the same compound, in data set [11], the MIC amounted to 2 µg/mL (≈ 3.86 µM). Besides, the “colony forming units (CFU) compared with ciprofloxacin” value in [2] is recorded as “Comparable results to ciprofloxacin”. Moreover, the “colony forming units (CFU) as compared to the control” value in [2] is on record as “decrease the amount of colony forming units”. The “mouse CLint” value in [4] came to 105. In data set [8], this compound showed a fraction unbound of 0.27. In data set [9], the IC50 was > 30 µM.

In the case of `CN1CC2CN(C(=O)Nc3cc(F)cc(F)c3)CC(C1)C2(O)c1ccc(-c2ccc(CN)cc2C#N)cn1` [Compound 24, (1R,5S,9r)-9-(5-(4-(aminomethyl)-2-cyanophenyl)pyridin-2-yl)-N-(3,5-difluorophenyl)-9-hydroxy-7-methyl-3,7-diazabicyclo[3.3.1]nonane-3-carboxamide], the minimum inhibitory concentration (MIC) in data set [1] stood at 0.25 µg/mL (≈ 0.482 µM); in data set [3], 4 µg/mL (≈ 7.71 µM); in [5], 4 µg/mL (≈ 7.71 µM); in data set [6], 1 µg/mL (≈ 1.93 µM); in data set [7] it was 16 µg/mL (≈ 30.9 µM); in data set [10] it was 2 µg/mL (≈ 3.86 µM). The MIC in data set [11] was found to be 2 µg/mL (≈ 3.86 µM). The “colony forming units (CFU) as compared to the control” value in data set [2] is reported as “decrease the amount of colony forming units”. In addition, the “mouse CLint” value in [4] was >145. Besides, the unbound share (fraction unbound) in [8] came to 0.38. Further, in data set [9], the IC50 was > 30 µM.

For `CNCc1ccc(-c2ccc(C3(O)C4CN(C)CC3CN(C(=O)Nc3cc(F)cc(F)c3)C4)nc2)c(C#N)c1` [Compound 17, (1R,5S,9r)-9-(5-(2-cyano-4-((methylamino)methyl)phenyl)pyridin-2-yl)-N-(3,5-difluorophenyl)-9-hydroxy-7-methyl-3,7-diazabicyclo[3.3.1]nonane-3-carboxamide], the minimum inhibitory concentration (MIC) was determined as 0.22 µg/mL (≈ 0.413 µM) in [1]; 3.56 µg/mL (≈ 6.68 µM) in data set [3]; 1.78 µg/mL (≈ 3.34 µM) in data set [5]; 0.45 µg/mL (≈ 0.845 µM) in data set [6]; 3.56 µg/mL (≈ 6.68 µM) in data set [7]; 1.78 µg/mL (≈ 3.34 µM) in [10]. In [11], this compound gave a minimum inhibitory concentration (MIC) of 3.56 µg/mL (≈ 6.68 µM). Besides, in data set [2], the “colony forming units (CFU) compared with ciprofloxacin” value is given as “Comparable results to ciprofloxacin”. In addition, the “colony forming units (CFU) as compared to the control” value in data set [2] is given as “decrease the amount of colony forming units”. Moreover, the “mouse CLint” value in data set [4] is >145. In addition, the unbound share (fraction unbound) in [8] came out at 0.45. Further, the IC50 in data set [9] is > 30 µM.
